# Source: patent US20160378912A1, “STRUCTURE-BASED MODELING AND TARGET-SELECTIVITY PREDICTION” (EPIGENETX, LLC, priority 2013, published 2016)
# Where two headings read alike, the source gives them in different places.
# Assays:
# HDAC10 = target: T1, HDAC10 (Homo sapiens, UniProt Q969S8); conditions: cited from earlier work
# T1 sequence (Q969S8 1-669): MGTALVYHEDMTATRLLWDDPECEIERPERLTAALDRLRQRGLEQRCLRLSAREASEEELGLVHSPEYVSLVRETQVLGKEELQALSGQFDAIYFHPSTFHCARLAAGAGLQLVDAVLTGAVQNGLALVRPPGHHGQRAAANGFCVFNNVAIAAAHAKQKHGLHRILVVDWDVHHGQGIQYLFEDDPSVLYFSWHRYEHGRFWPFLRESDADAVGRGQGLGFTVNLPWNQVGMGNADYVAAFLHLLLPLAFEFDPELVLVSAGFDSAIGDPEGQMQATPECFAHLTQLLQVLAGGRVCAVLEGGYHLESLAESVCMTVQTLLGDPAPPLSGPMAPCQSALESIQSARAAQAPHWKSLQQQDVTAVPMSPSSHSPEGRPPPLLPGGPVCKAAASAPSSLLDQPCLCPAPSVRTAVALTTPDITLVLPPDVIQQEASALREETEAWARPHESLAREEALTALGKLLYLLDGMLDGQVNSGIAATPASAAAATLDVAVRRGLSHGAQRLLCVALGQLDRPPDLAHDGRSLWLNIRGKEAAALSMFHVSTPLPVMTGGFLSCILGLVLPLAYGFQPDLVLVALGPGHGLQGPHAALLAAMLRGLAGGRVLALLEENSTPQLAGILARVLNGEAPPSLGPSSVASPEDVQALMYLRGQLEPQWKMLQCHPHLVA
# HDAC8 = target: T2, HDAC8 (Homo sapiens, UniProt Q9BY41); conditions: cited from earlier work
# T2 sequence (Q9BY41 1-377): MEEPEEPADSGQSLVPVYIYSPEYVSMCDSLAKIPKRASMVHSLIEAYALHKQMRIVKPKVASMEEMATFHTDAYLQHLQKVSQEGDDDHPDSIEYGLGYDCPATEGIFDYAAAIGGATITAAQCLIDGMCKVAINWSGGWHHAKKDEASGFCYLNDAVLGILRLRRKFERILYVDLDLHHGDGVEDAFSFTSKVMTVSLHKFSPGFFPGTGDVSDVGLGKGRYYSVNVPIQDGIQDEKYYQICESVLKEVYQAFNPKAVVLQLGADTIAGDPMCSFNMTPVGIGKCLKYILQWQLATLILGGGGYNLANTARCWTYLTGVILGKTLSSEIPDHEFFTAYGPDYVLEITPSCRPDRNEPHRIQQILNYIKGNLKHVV
# HDAC isoforms = assay: HDAC inhibition profiled over several HDAC isoforms (experimental); assay type: biochemical, human; conditions: range of pIC50 over the profiled HDAC isoforms
# HDAC1 = HDAC1 (Homo sapiens, UniProt Q13547); conditions: cited from earlier work
# HDAC4 = HDAC4 (Homo sapiens, UniProt P56524); conditions: cited from earlier work
# HDAC3 = HDAC3 (Homo sapiens, UniProt O15379); conditions: cited from earlier work
# HDAC6 = target: T3, HDAC6 (Homo sapiens, UniProt Q9UBN7); conditions: cited from earlier work; for pIC50exp: HDAC6 experimental activity assigned; for pIC50: training set composition
# T3 sequence (Q9UBN7 1-1215): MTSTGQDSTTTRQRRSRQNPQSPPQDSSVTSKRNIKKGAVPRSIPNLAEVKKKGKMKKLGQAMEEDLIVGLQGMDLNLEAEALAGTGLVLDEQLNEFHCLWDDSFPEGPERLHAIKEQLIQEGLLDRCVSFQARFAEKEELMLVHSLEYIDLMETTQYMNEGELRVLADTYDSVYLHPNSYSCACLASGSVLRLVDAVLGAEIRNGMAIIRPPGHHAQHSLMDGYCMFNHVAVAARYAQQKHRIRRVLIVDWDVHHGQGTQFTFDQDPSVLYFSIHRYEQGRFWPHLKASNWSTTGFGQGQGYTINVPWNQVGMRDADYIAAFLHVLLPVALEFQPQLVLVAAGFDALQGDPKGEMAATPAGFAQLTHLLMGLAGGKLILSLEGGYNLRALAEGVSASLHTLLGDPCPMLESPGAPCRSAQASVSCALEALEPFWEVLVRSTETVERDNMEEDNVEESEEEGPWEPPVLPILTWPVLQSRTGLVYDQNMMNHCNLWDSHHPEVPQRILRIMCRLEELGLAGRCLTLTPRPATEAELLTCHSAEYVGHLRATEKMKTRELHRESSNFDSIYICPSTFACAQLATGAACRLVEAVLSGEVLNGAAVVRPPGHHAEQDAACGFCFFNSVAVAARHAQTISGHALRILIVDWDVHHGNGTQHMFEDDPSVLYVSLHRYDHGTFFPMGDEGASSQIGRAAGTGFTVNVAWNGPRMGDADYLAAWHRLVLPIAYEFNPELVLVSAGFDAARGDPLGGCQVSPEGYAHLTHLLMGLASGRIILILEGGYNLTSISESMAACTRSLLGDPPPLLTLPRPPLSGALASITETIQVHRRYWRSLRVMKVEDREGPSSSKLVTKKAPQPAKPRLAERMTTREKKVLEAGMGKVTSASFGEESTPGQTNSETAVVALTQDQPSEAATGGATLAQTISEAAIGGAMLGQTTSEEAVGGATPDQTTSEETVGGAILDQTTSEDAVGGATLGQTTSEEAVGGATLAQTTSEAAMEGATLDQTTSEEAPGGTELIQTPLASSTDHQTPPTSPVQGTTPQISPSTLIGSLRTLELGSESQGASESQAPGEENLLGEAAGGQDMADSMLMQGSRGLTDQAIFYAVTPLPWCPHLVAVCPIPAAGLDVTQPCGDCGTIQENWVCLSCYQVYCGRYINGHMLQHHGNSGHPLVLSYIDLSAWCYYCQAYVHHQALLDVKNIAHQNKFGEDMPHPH
# HDAC5 = HDAC5 (Homo sapiens, UniProt Q9UQL6); conditions: against HDAC5; cited from earlier work
# [1] = experimental value of modeled complex
# [2] = training set, read-out: HDACs inhibitory activities IC50
# HDAC1, sequence (Q13547 whole entry): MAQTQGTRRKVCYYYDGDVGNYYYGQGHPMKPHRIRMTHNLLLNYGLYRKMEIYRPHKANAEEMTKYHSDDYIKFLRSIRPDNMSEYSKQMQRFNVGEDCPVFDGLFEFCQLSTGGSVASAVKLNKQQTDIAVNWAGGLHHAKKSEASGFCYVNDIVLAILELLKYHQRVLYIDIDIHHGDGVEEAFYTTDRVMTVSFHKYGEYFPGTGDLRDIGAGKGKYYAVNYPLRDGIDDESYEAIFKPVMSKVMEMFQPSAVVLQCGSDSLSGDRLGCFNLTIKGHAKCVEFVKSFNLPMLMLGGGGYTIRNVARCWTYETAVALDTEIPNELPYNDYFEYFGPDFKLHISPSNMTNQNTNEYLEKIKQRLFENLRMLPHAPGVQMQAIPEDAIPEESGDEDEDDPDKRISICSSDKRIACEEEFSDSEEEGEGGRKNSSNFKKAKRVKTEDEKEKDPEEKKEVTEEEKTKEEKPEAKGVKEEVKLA
# HDAC3, sequence (O15379 whole entry): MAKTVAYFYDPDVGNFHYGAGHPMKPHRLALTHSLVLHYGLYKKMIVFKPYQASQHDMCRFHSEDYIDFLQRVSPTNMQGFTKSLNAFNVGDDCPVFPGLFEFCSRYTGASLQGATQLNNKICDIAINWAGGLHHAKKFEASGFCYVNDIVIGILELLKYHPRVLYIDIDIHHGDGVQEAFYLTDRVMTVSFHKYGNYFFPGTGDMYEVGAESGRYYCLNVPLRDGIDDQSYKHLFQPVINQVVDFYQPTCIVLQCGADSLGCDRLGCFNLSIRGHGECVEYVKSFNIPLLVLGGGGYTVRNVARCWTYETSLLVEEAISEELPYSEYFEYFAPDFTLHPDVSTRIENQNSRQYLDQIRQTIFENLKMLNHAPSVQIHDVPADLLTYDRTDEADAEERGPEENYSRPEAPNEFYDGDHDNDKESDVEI
# HDAC3, sequence (Q9Y618 395-489 partner limits assumed): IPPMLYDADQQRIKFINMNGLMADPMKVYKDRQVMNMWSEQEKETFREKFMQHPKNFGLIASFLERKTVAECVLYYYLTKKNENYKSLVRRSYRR
# HDAC4, sequence (P56524 whole entry): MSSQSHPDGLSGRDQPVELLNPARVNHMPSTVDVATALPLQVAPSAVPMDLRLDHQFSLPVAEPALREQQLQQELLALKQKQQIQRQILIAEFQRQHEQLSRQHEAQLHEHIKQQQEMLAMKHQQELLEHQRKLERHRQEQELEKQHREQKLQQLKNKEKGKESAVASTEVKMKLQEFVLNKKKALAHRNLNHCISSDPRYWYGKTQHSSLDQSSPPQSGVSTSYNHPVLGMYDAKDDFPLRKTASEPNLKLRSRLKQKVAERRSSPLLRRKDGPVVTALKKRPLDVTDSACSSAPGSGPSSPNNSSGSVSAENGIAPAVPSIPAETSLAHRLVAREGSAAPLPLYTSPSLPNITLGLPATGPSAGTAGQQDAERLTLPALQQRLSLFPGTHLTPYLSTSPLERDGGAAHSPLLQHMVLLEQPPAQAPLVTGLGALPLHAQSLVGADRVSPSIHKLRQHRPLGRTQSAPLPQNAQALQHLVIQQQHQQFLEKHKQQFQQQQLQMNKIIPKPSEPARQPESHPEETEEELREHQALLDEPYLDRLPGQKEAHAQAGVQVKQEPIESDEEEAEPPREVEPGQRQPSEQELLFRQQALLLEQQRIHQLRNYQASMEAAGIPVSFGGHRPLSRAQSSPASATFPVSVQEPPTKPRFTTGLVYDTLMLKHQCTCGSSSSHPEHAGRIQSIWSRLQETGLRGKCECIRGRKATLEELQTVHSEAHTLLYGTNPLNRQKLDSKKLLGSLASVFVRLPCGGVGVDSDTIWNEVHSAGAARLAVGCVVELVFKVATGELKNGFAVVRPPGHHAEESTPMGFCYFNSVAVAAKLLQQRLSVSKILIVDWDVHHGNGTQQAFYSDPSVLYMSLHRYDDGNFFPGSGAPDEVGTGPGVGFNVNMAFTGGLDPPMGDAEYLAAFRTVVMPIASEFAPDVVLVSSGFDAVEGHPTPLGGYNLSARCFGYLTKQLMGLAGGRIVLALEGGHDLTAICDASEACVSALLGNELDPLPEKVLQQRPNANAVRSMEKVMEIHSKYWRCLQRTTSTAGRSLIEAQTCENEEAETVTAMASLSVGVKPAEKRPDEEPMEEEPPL
# HDAC5, sequence (Q9UQL6 whole entry): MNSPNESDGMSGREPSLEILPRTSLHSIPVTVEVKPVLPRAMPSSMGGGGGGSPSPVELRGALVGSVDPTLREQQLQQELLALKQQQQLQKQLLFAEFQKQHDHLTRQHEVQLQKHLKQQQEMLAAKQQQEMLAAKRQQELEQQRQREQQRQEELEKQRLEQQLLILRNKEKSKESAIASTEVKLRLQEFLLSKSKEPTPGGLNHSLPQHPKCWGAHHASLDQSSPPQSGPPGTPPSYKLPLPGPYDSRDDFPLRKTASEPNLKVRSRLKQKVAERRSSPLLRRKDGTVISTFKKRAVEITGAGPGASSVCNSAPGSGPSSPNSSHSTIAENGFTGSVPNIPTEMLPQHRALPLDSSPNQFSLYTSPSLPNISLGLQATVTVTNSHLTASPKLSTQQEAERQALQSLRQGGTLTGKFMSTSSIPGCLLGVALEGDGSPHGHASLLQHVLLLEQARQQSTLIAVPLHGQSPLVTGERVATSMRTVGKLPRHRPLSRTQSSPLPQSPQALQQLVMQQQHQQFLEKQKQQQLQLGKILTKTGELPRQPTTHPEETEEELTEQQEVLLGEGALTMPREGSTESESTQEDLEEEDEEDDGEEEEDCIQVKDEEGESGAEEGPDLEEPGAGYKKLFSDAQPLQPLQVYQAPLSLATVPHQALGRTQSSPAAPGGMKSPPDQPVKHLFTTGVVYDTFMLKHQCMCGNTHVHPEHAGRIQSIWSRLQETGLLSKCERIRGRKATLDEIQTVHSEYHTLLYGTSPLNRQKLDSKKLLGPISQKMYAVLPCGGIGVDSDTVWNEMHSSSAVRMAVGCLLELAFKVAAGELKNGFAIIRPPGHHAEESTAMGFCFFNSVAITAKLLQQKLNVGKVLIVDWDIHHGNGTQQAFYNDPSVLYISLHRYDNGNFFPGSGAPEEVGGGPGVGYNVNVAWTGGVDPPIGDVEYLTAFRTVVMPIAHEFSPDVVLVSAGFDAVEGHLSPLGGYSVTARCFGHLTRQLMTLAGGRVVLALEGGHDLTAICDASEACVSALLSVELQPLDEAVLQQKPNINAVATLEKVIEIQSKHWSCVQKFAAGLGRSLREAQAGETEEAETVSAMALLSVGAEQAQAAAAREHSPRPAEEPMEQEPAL
structure (smiles),measurement,setting,value
"CCCC(=O)O [NABUT, Butyrate]",pIC50exp,HDAC10; [1],3.535
same,pIC50,HDAC10; training set composition,3.54
same,IC50,HDAC10; [2],292 µM
same,pIC50,HDAC8; training set composition,4.07
same,IC50,HDAC8; [2],85.6 µM
same,Bioactivity range (ΔpIC50) DpIC50,HDAC isoforms,1.95
same,pIC50exp,HDAC1; [1],3.496
same,pIC50,HDAC1; training set composition,3.50
same,IC50,HDAC1; [2],319 µM
same,pIC50,HDAC4; training set composition,4.52
same,IC50,HDAC4; [2],30 µM
same,pIC50exp,HDAC3; [1],4.648
same,pIC50,HDAC3; training set composition,4.65
same,IC50,HDAC3; [2],22.5 µM
same,pIC50exp,HDAC6; HDAC6-1 (histone catalytic domain),3
same,pIC50,HDAC6; HDAC6-1,3.00
same,pIC50exp,HDAC6; HDAC6-2 (tubulin catalytic domain),3
same,pIC50,HDAC6; HDAC6-2,3.00
same,IC50,"HDAC6; HDAC6, training set, read-out: HDACs inhibitory activities IC50",1000 µM
same,pIC50 (lower end of training set activity range),HDAC5,2.7
